Reference: US5229410A, “6-substituted-hexahydrobenz[cd]indoles” (Eli Lilly and Company, priority 1991, dated 1993)
Read-outs that look alike come from different tables or passages of the source.

How the values were obtained:
[1] = target: T1, central 5-HT1D binding sites (Bos taurus, UniProt F1MGM3); experiment: 5-HT1D binding ([3H]5-HT displacement, bovine caudate nuclei membranes)
T1 construct: Bovine brains were obtained from Pel-Freeze Biologicals, and the caudate nuclei were dissected out; tissue Pel-Freeze Biologicals; host or cells: bovine caudate nuclei (washed membranes)
T1 sequence (F1MGM3 1-403): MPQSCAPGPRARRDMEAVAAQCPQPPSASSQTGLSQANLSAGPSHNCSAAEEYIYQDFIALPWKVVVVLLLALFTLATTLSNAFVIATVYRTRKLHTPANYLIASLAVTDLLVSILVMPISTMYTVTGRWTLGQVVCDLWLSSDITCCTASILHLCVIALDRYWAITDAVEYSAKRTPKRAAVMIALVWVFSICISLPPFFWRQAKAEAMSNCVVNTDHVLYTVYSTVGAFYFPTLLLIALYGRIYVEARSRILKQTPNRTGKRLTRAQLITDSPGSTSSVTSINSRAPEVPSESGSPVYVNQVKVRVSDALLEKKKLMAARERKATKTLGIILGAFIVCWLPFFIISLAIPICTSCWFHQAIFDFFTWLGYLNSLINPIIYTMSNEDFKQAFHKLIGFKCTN
Method: The affinities of the compounds at the central 5-HT1D binding sites were determined using a modification of the binding assay described by Heuring and Peroutka (J. Neurosci. 7:894-903, 1987). Bovine brains were obtained from Pel-Freeze Biologicals, and the caudate nuclei were dissected out and frozen at -70° C. until the time that the membranes were prepared for the binding assays. At that time the tissues were homogenized in 40 volumes of ice-cold Tris-HCl buffer (50 mM, pH 7.4 at 22° C.) with a Techmar Tissumizer (setting 65 for 15 sec), and the homogenate was centrifuged at 39,800 g for 10 min. The resulting pellet was then resuspended in the same buffer, and the centrifugation and resuspension process was repeated three additional times to wash the membranes. Between the second and third washes the resuspended membranes were incubated for 10 min at 37° C. to facilitate the removal of endogenous 5-HT. The final pellet was resuspended in Tris buffer to a concentration of 25 mg of original tissue wet weight/ml for use in the binding assay. […] The assay tubes were incubated for 10 min at 37° C., and the contents were then rapidly filtered through GF/B filters (pretreated with 0.5% polyethylenimine), followed by four one-mL washes with ice-cold buffer. The radioactivity trapped by the filters was quantitated by liquid scintillation spectrometry, and specific [^3 H]5-HT binding to the 5-HT1D sites was defined as the difference between [^3 H]5-HT bound in the presence and absence of 10 μM 5-HT.
The affinities of compounds at the 5-HT1D receptor are expressed as IC50 values, i.e., the concentration required to inhibit 50% of the binding. These values were determined from 12-point competition curves using nonlinear regression (SYSTAT, SYSTAT, Inc., Evanston, Ill.).

central 5-HT1A receptors = target: T2, central 5-HT1A receptors (Rattus norvegicus, UniProt P19327); experiment: 5-HT1A receptor binding ([3H]8-OH-DPAT displacement, rat hippocampal membranes); design: species or system male Sprague-Dawley rats
T2 construct: the brains were rapidly chilled and dissected to obtain the hippocampi; from tissue; host or cells: hippocampus of male Sprague-Dawley rats (washed membranes)
T2 sequence (P19327 1-422): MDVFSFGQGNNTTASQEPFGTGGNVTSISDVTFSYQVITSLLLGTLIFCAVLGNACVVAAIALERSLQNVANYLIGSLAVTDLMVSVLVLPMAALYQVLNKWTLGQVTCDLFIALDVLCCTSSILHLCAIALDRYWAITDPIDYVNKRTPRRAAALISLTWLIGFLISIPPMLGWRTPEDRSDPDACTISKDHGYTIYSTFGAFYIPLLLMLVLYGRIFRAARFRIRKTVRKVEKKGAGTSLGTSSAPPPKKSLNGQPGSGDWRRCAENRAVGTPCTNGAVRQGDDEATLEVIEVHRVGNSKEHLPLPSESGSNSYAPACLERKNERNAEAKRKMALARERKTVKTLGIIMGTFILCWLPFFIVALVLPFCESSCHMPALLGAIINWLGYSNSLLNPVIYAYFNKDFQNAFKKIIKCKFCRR
Method: The affinities of the compounds at the central 5-HT1A receptors were determined using a modification of the binding assay described by Taylor, et al., (J. Pharmacol. Exp. Ther. 236:118-125, 1986). Membranes for the binding assay were prepared from male Sprague-Dawley rats (150-250 g). The animals were killed by decapitation, and the brains were rapidly chilled and dissected to obtain the hippocampi. The hippocampi were either prepared that day or stored frozen (-70° C.) until the day of preparation. Membranes were prepared by homogenizing the tissue in 40 volumes of ice-cold Tris-HCl buffer (50 mM, pH 7.4 at 22° C.) using a Techmar Tissumizer (setting 65 for 15 sec), and the homogenate was centrifuged at 39800×g for 10 min. The resulting pellet was then resuspended in the same buffer, and the centrifugation and resuspension process was repeated three additional times to wash the membranes. Between the second and third washes the resuspended membranes were incubated for 10 min at 37° C. to facilitate the removal of endogenous ligands. The final pellet was resuspended in 67 mM Tris-HCl, pH 7.4, to a concentration of 2 mg of tissue original wet weight/200 μl. This homogenate was stored frozen (-70° C.) until the day of the binding assay. […] The assay tubes were incubated for 10 min at 37° C., and the contents were then rapidly filtered through GF/B filters (pretreated with 0.5% polyethylenimine), followed by four one-mL washes with ice cold buffer. The radioactivity trapped by the filters was quantitated by liquid scintillation spectrometry, and specific [^3 H]8-OH-DPAT binding to the 5-HT1A sites was defined as the difference between [^3 H]8-OH-DPAT bound in the presence and absence of 10 μM 5-HT.
The affinity of the particular compound at the 5-HT1A receptor is expressed as IC50 value, i.e., the concentration required to inhibit 50% of the binding. The IC50 values were determined from 12-point competition curves using nonlinear regression (SYSTAT, SYSTAT, INC., Evanston, Ill.).

serum corticosterone = serum corticosterone in vivo after subcutaneous injection; design: species or system male albino rats; details: 1 hour, * = P<0.05 vs control
Method: (§1) Certain compounds were evaluated to determine their ability to affect the 5-hydroxyindoles serotonin, 5-hydroxyindole acetic acid (5HIAA) and serum corticosterone, in vivo, using the following procedures.
(§2) Compounds in aqueous solution were injected subcutaneously into male albino rats. Rats were decapitated one hour later. Trunk blood was collected and allowed to clot; after centrifugation, serum was stored frozen prior to analysis. Whole brain was removed and frozen on dry ice, then stored frozen prior to analysis. Serum corticosterone concentration was measured spectrofluorometrically (J. H. Solem and T. Brinch-Johnsen, "An evaluation of a method for determination of free corticosteroids in minute quantities of mouse plasma," Scand. J. Clin. Lab. Invest. (Suppl. 80), 1.14 (1965).) 5-Hydroxyindoleacetic acid (5HIAA) concentration in whole brain was measured by liquid chromatography with electrochemical detection. (Ray W. Fuller and Kenneth W. Perry, "Effects of buspirone and its metabolite, 1-(2-pyrimidinyl)piperazine, on brain monoamines and their metabolites in rats", J. Pharmacol. Exp. Ther. 248, 50-56 (1989).) The results are provided in Table III.

Brain 5-hydroxyindoles = experiment: brain 5-hydroxyindoles in vivo after subcutaneous injection; design: species or system male albino rats; details: 1 hour, * = P<0.05 vs control
Method: as §1, §2

[2] = [3H]5-HT 1.7-1.9 nM, bovine caudate, 8-OH-DPTA and mesulergine 100 nM as masks, pH 7.4, 37° C., 10 min, read-out: 5HT1D IC50 (concentration required to inhibit 50% of the binding)
[3] = [3H]8-OH-DPAT 1.0 nM, rat hippocampi, pH 7.4, 37° C., 10 min, read-out: 5HT1A IC50 (concentration required to inhibit 50% of the binding)

SMILES	IC50 [1]	IC50 (central 5-HT1A receptors)	Serum Corticosterone (serum corticosterone; 0.003 mg/Kg s.c.)	Serum Corticosterone (serum corticosterone; 0.03 mg/Kg s.c.)	Serum Corticosterone (serum corticosterone; 0.3 mg/Kg s.c.)	IC50 [1, 2]	IC50 (central 5-HT1A receptors; [3])	Brain 5-HIAA (Brain 5-hydroxyindoles; 0.003 mg/Kg s.c.)	Brain serotonin (Brain 5-hydroxyindoles; 0.003 mg/Kg s.c.)	Brain 5-HIAA (Brain 5-hydroxyindoles; 0.03 mg/Kg s.c.)	Brain serotonin (Brain 5-hydroxyindoles; 0.03 mg/Kg s.c.)	Brain 5-HIAA (Brain 5-hydroxyindoles; 0.3 mg/Kg s.c.)	Brain serotonin (Brain 5-hydroxyindoles; 0.3 mg/Kg s.c.)
CCCN(CCC)[C@H]1Cc2c(C(C)=O)ccc3c2[C@@H](CN3)C1 (relative stereo) [Example 3, 6-acetyl-4-(di-n-propylamino)-1,2,2a,3,4,5-hexahydrobenz[cd]indole]	7.47 nM	0.63 nM	–	–	–	–	–	–	–	–	–	–	–
CCCN(CCC)C1Cc2c(C(=O)C(C)C)ccc3c2C(CN3)C1 (single isomer, unassigned; (-)) [Example 9, (-)-6-(2-methylpropanoyl)-4-(di-n-propylamino)-1,2,2a,3,4,5-hexahydrobenz[cd]indole]	–	–	4.1 ± 0.5 μg/100 ml	6.0 ± 1.6 μg/100 ml	6.7 ± 2.0 μg/100 ml	3130 nM	54.9 nM	1.68 ± 0.10 n moles/g	1.83 ± 0.08 n moles/g	1.91 ± 0.06 n moles/g	1.90 ± 0.10 n moles/g	1.74 ± 0.04 n moles/g	1.69 ± 0.06 n moles/g
CCCN(CCC)[C@H]1Cc2c(C(C)=O)ccc3c2[C@H](CN3)C1 [Example 4, (2aR,4R)-6-acetyl-4-(di-n-propylamino)-1,2,2a,3,4,5-hexahydrobenz[cd]indole]	–	–	–	–	–	236 nM	0.8 nM	–	–	–	–	–	–
CCCN(CCC)[C@@H]1Cc2c(C(C)=O)ccc3c2[C@@H](CN3)C1 [Example 5, (2aS,4S)-6-acetyl-4-(di-n-propylamino)-1,2,2a,3,4,5-hexahydrobenz[cd]indole]	–	–	–	–	–	129 nM	0.31 nM	–	–	–	–	–	–
CCCN(CCC)[C@H]1Cc2c(C(C)=O)ccc3c2[C@@H](CN3)C1 [Example 6, (+)-(2aS,4R)-6-acetyl-4-(di-n-propylamino)-1,2,2a,3,4,5-hexahydrobenz[cd]indole]	–	–	5.8 ± 1.0 μg/100 ml	10.6 ± 2.0 μg/100 ml	42.2 ± 1.1 μg/100 ml	6.25 nM	0.3 nM	1.81 ± 0.14 n moles/g	2.46 ± 0.14 n moles/g	1.58 ± 0.08 n moles/g	2.99 ± 0.06 n moles/g	1.41 ± 0.03 n moles/g	3.08 ± 0.04 n moles/g
CCCN(CCC)[C@@H]1Cc2c(C(C)=O)ccc3c2[C@H](CN3)C1 [Example 7, (-) (2aR,4S)-6-acetyl-4-(di-n-propylamino)-1,2,2a,3,4,5-hexahydrobenz[cd]indole]	–	–	3.8 ± 0.5 μg/100 ml	6.5 ± 2.6 μg/100 ml	8.4 ± 4.0 μg/100 ml	8500 nM	6.61 nM	2.06 ± 0.13 n moles/g	2.75 ± 0.05 n moles/g	1.87 ± 0.07 n moles/g	2.57 ± 0.10 n moles/g	1.77 ± 0.17 n moles/g	2.85 ± 0.08 n moles/g
CCCN(CCC)[C@H]1Cc2c(C(=O)C(C)C)ccc3c2[C@@H](CN3)C1 [Example 8, (+)-(2aS,4R)-6-(2-methylpropanoyl)-4-(di-n-propylamino)-1,2,2a,3,4,5-hexahydrobenz[cd]indole]	–	–	3.6 ± 0.7 μg/100 ml	27.1 ± 6.4 μg/100 ml	42.0 ± 0.4 μg/100 ml	1.24 nM	0.25 nM	1.56 ± 0.10 n moles/g	1.88 ± 0.05 n moles/g	1.34 ± 0.06 n moles/g	2.26 ± 0.06 n moles/g	1.30 ± 0.07 n moles/g	2.26 ± 0.16 n moles/g
CCCN(CCC)[C@@H]1Cc2c(C(=O)CC)ccc3c2[C@H](CN3)C1 [Example 10, (-)-(2aR,4S)-6-(propanoyl)-4-(di-n-propylamino)-1,2,2a,3,4,5-hexahydrobenz[cd]indole]	–	–	–	–	–	9000 nM	9.47 nM	–	–	–	–	–	–
CCCN(CCC)[C@H]1Cc2c(C(=O)c3ccccc3)ccc3c2[C@@H](CN3)C1 [Example 12, (+)-(2aS,4R)-6-(benzoyl)-4-(di-n-propylamine)-1,2,2a,3,4,5-hexahydrobenz[cd]indole]	–	–	–	–	–	1.78 nM	0.34 nM	–	–	–	–	–	–
CCCN(CCC)[C@H]1Cc2c(C(=O)Cc3ccccc3)ccc3c2[C@@H](CN3)C1 [Example 13, (+)-(2aS,4R)-6-(2-phenylethanoyl)-4-(di-n-propylamino)-1,2,2a,3,4,5-hexahydrobenz[cd]indole]	–	–	–	–	–	2.7 nM	0.98 nM	–	–	–	–	–	–
